Test results taken from PMC8155809 (The Journal of General Physiology, 2021).

Biological target: T1, WT TREK-2 (Homo sapiens, UniProt P57789)
T1 construct: full-length WT TREK-2 channels, we examined its effects on the mean open time of TREK-2 channels expressed in HEK293 cells; expressed in transfected cells; host or cells: HEK293 cells, transient transfection with pcDNA3
T1 sequence (P57789 1-543 isoform P57789-4): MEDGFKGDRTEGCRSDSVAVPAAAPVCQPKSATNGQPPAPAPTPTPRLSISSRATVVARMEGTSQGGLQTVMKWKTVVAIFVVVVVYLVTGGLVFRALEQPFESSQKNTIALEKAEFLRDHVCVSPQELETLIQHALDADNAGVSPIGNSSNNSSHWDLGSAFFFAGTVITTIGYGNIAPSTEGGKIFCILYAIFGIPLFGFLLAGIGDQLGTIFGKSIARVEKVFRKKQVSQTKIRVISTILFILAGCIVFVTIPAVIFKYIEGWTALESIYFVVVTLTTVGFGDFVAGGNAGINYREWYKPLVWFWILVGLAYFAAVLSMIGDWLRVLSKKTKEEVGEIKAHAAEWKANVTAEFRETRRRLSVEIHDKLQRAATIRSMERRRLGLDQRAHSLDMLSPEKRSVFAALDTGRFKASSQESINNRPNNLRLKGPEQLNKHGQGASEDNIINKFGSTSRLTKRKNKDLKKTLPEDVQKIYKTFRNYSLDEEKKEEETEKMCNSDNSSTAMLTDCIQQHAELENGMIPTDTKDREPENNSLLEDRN
Test: Single-channel recordings of WT TREK-2 in excised patches from HEK293 cells
Format: cell-based
Protocol: Full-length human TREK-2 isoform 3 (NCBI accession no. NP_612191) was used throughout this study and was subcloned into the pFAW vector for expression in oocytes. The truncated construct used to generate protein (TREK-2ΔN/ΔC) is identical to that used previously to obtain crystal structures ([Dong et al., 2015]); it contains a deletion of 71 residues at the N terminus and 213 residues at the C terminus. […] Desamino chloro-fluoxetine (Toronto Research Chemicals) was dissolved in chloroform and diluted to working concentrations on the day of experimenting (maximum final concentration was 0.01%).
HEK293 cells were cultured in DMEM (Sigma) containing 10% FBS (Life Technologies), 3 mM glucose, and 2 mM glutamine at 37°C in a humidified atmosphere of 5% CO2/[…] at 37°C. Cells were transiently transfected with 0.2 µg channel pcDNA3 per dish using FuGENE 6 according to the manufacturer’s instructions. Cells were used 1–2 d after transfection.
For currents recorded in Xenopus laevis oocytes, giant-patch electrodes were pulled from thick-walled borosilicate glass and polished to give pipette resistances of ∼0.3–0.5 MΩ when filled with patch solution. Pipette solution contained (in mM) 116 NMDG, 4 KCl, 1 MgCl2, 3.6 CaCl2, and 10 HEPES (pH 7.4), while the bath solution contained (in mM) 120 KCl, 1 NaCl, 2 EGTA, and 10 HEPES (pH 7.3). Patches were perfused via a gravity-flow perfusion system and a HEKA EPC 10 USB single computer–controlled amplifier was used and currents recorded using a Patchmaster v2 × 90.5 (HEKA Electronics), filtered at 1 kHz, and sampled at 10 kHz. For currents recorded in HEK293 cells, patch electrodes were pulled from thick-walled borosilicate glass and polished to give pipette resistances of ∼3–5 MΩ when filled with patch solution. The currents were recorded from excised patches with both intracellular and extracellular solution containing 200 mM KCl and 10 mM HEPES (pH 6.0 with KOH). Patches were perfused via a gravity-flow perfusion system. Data were acquired with pClamp and recorded using an Axopatch 200B (Molecular Devices), filtered at 5 kHz, and sampled at 200 kHz. Single-channel currents were analyzed in an identical manner to those obtained from bilayers (see above).

Compound: NCCC(Oc1ccc(C(F)(F)F)cc1)c1ccccc1 (stereo not shown) [NFx, norfluoxetine]
- mean Po (10 µM NFx in the presence of 100 µM ML335, −40 mV): 0.69 ± 0.2
- amplitude ratio of γ (10 µM NFx in the presence of 100 µM ML335 vs ML335 alone, −40 mV): 1.00 ± 0.01
- reduction of τo (mean open time) (10 µM NFx, Fig. S6): ~30%
- reduction of Po of WT TREK-2 channel (10 µM NFx, no further change in the presence of NFx, as in Fig. S6): 79 ± 0.05%
- τo (mean open time) (10 µM NFx, −10 mV): 0.89 ms
- reduction in γ (single-channel current amplitude) (10 µM, −40 mV (Fig. 6B)): 11 ± 7%
- reduction of channel Po (10 µM, −40 mV (Fig. 6B)): 70 ± 0.03%
